Measurements reported in US20220017489A1, “SOLID DISPERSIONS FOR TREATMENT OF CANCER” (Celgene Corporation, priority 2018, published 2022).
≈ marks a conversion by molar mass, not a printed value. Read-outs that look alike come from different tables or passages of the source. Each block holds one molecule with its values, some of them ahead of it.

Key:
[1] = Solubility determination of amorphous solid dispersions of Compound 1A in water, SIF and SGF at 37° C.; assay type: physicochemical
Protocol: For the solubility determination, suspensions of Compound 1A and dispersions were prepared in 3 mL aqueous medium. […] Samples were taken after 0.5, 1 and 2 hours, filtered over a PTFE spin filter and the concentration of Enasidenib in solution was determined by HPLC analysis. In the next sections the solubility results are discussed per aqueous media.
The concentration of API in solution was determined by HPLC analysis after 0.5, 1 and 2 hours.

[2] = Amorphous solid dispersion screen for Compound 1A: HT-XRPD after accelerated aging conditions (40° C./70% RH, 4 weeks); assay type: physicochemical; conditions: HT-XRPD form after accelerated aging conditions, 4 weeks at 40° C. and 70% RH
Protocol: The plates were mounted on a Bruker General Area Detector Diffraction System (GADDS) equipped with a VÅNTEC-500 gas area detector corrected for intensity and geometric variations. The calibration of the measurement accuracy (peaks position) was performed using NIST SRM1976 standard (Corundum).
No background subtraction or curve smoothing was applied to the XRPD patterns.

[3] = Quantitative (24-hour shake flask) thermodynamic solubility of Compound 1A in organic solvents and water; assay type: physicochemical; conditions: room temperature
Protocol: The solubility of Compound 1A was quantitatively assessed in 10 different organic solvents and water. Slurries were prepared by mixing 30 mg of Compound 1A with an appropriate solvent volume. A stirring bean was added and the suspensions were stirring (500 rpm) at room temperature for 24 hours. An aliquot of the suspension was transferred into a spin filter (nylon, 0.2 μm). The solubility of the filtered solution was determined by HPLC.

[4] = Anti-precipitant screening of Compound 1A by solvent shift method in SIF; assay type: physicochemical; conditions: control experiment, crystalline solid, no polymer
Protocol: The anti-precipitant screen by the solvent shift method was used for discovering polymers that can maintain the supersaturated state of Compound 1A in solution. Based on the results of this screen, polymers were selected for the development of the ASD.
The concentration of free base in solution was determined by HPLC analysis.

[5] = 37° C.
physchem = conditions: thermodynamic from solid
[6] = Kinetic solubility of Compound 1A in SIF and SGF (DMSO solutions added to medium); assay type: physicochemical; conditions: 80 μL of 60, 30, 15 and 5 mg/mL DMSO solutions added to 4 mL
Protocol: Prior to the solvent shift experiments, the kinetic solubility of Compound 1A was tested in simulated intestinal fluid (SIF) and simulated gastric fluid (SGF) in order to choose the Compound 1A concentration suitable for the solvent shift experiments. Four different Compound 1A solutions (in DMSO) were prepared with concentrations of 60, 30, 15 and 5 mg/mL. Subsequently, 80 μL of these solutions were added to 4 mL of SGF and to 4 mL of SIF.
For the solvent shift experiments in SIF, Compound 1A concentration in DMSO of 5 mg/mL was used.

[7] = thermodynamic from solid, Water

Concentration API ([1]; SGF, 0.5 hours): 20800 ng/mL
Concentration API ([1]; SGF, 1 hour): 13000 ng/mL
Concentration API ([1]; SGF, 2 hours): 10900 ng/mL
Concentration API ([1]; SIF, 0.5 hours): <100 ng/mL
Concentration API ([1]; SIF, 1 hour): <100 ng/mL
Concentration API ([1]; SIF, 2 hours): <100 ng/mL
Concentration API ([1]; Water, 0.5 hours): <100 ng/mL
Concentration API ([1]; Water, 1 hour): <100 ng/mL
Concentration API ([1]; Water, 2 hours): <100 ng/mL
XRPD AAC [2]: Form 1
Structure (SMILES): CC(C)(O)CNc1nc(Nc2ccnc(C(F)(F)F)c2)nc(-c2cccc(C(F)(F)F)n2)n1 [ASD102]

Concentration API ([1]; SGF, 0.5 hours): ~80000 ng/mL
Concentration API ([1]; SGF, 0.5 hours, listed as SM): 75800 ng/mL
Concentration API ([1]; SGF, 1 hour): 41300 ng/mL
Concentration API ([1]; SGF, 2 hours): about 20 μg/mL
Concentration API ([1]; SGF, 2 hours, listed as SM): 19400 ng/mL
Concentration API ([1]; SIF, 0.5 hours): 300 ng/mL
Concentration API ([1]; SIF, 1 hour): <100 ng/mL
Concentration API ([1]; SIF, 2 hours): <100 ng/mL
Concentration API ([1]; Water, 0.5 hours, listed as SM): 1000 ng/mL
Concentration API ([1]; Water, 1 hour): 400 ng/mL
Concentration API ([1]; Water, 2 hours): <100 ng/mL
solubility [1, 7]: ~1 µg/mL (≈ 0.00211 mM)
solubility ([3]; Water): practically insoluble
solubility at 24 h ([3]; organic solvent or mixture, thermodynamic from solid, 1,4-Dioxane): 69200 µg/mL (≈ 146 mM)
solubility at 24 h ([3]; organic solvent or mixture, thermodynamic from solid, 2-Propanol): 229000 µg/mL (≈ 484 mM)
solubility at 24 h ([3]; organic solvent or mixture, thermodynamic from solid, Acetone): 209000 µg/mL (≈ 442 mM)
solubility at 24 h ([3]; organic solvent or mixture, thermodynamic from solid, Acetonitrile): 14700 µg/mL (≈ 31.1 mM)
solubility at 24 h ([3]; organic solvent or mixture, thermodynamic from solid, Chloroform): 70600 µg/mL (≈ 149 mM)
solubility at 24 h ([3]; organic solvent or mixture, thermodynamic from solid, Ethanol): > 408000 µg/mL
solubility at 24 h ([3]; organic solvent or mixture, thermodynamic from solid, Ethyl acetate): 127000 µg/mL (≈ 268 mM)
solubility at 24 h ([3]; organic solvent or mixture, thermodynamic from solid, Methanol): > 463000 µg/mL
solubility at 24 h ([3]; organic solvent or mixture, thermodynamic from solid, Tetrahydrofuran): > 429000 µg/mL
solubility at 24 h [3, 7]: < 100 µg/mL
Solubility of crystalline Compound 1A in SIF [4]: practically insoluble
Concentration API (μg/mL) 0.5 h ([5]; SGF): 21.9 µg/mL
pH 0.5 h ([5]; SGF): 1.24
Concentration API (μg/mL) 1 h ([5]; SGF): 17.2 µg/mL
Concentration API (μg/mL) 2 h ([5]; SGF): 14.6 µg/mL
pH 2 h ([5]; SGF): 1.23
Concentration API (μg/mL) 0.5 h ([5]; SIF): 0.4 µg/mL
pH 0.5 h ([5]; SIF): 6.60
Concentration API (μg/mL) 1 h ([5]; SIF): <0.1 µg/mL
Concentration API (μg/mL) 2 h ([5]; SIF): <0.1 µg/mL
pH 2 h ([5]; SIF): 6.44
Concentration API (μg/mL) 0.5 h ([5]; Water): 0.7 µg/mL
pH 0.5 h ([5]; Water): 2.64
Concentration API (μg/mL) 1 h ([5]; Water): 0.4 µg/mL
Concentration API (μg/mL) 2 h ([5]; Water): 0.3 µg/mL
pH 2 h ([5]; Water): 2.15
solubility at 24 h (physchem; 1,4-dioxane, organic solvent or mixture): 400 µg/mL (≈ 0.845 mM)
solubility at 24 h (physchem; 2-propanol, organic solvent or mixture): 1400 µg/mL (≈ 2.96 mM)
solubility at 24 h (physchem; acetone, organic solvent or mixture): 900 µg/mL (≈ 1.9 mM)
solubility at 24 h (physchem; acetonitrile, organic solvent or mixture): 500 µg/mL (≈ 1.06 mM)
solubility at 24 h (physchem; chloroform, organic solvent or mixture): 200 µg/mL (≈ 0.422 mM)
solubility at 24 h (physchem; ethanol, organic solvent or mixture): 7300 µg/mL (≈ 15.4 mM)
solubility at 24 h (physchem; ethyl acetate, organic solvent or mixture): 200 µg/mL (≈ 0.422 mM)
solubility at 24 h (physchem; methanol, organic solvent or mixture): 35600 µg/mL (≈ 75.2 mM)
solubility at 24 h (physchem; tetrahydrofuran, organic solvent or mixture): 1800 µg/mL (≈ 3.8 mM)
solubility at 24 h (physchem; water): < 100 µg/mL
Structure (SMILES): CC(C)(O)CNc1nc(Nc2ccnc(C(F)(F)F)c2)nc(-c2cccc(C(F)(F)F)n2)n1 [Compound 1A, 2-methyl-1-[(4-[6-(trifluoromethyl)pyridin-2-yl]-6-{[2-(trifluoromethyl)pyridin-4-yl]amino}-1,3,5-triazin-2-yl)amino]propan-2-ol]
Kinetic solubility (precipitation) ([6]; SGF): precipitation was observed when using the solution with the highest concentration
Kinetic solubility (precipitation) ([6]; SIF): precipitated using all four concentrations
